How the values were obtained:
Test in all cases: Peptidase detection on Columbia medium with substrate, spot inoculation
Format in all cases: cell-based
[1] = system: Enterococcus faecalis NCTC 775; details: 40 mg substrate in 400 ml Columbia medium, 24 hours at 37° C., visual reading
Description: (§1) A weight of 40 mg of substrate was dissolved in 4 ml of dimethyl sulfoxide and added to 400 ml of previously autoclaved Columbia medium. The medium was distributed into Petri dishes 90 mm in diameter, in a proportion of 20 ml per dish. Seventeen strains of microorganisms stemming from collections and belonging to various species of bacteria and yeasts are inoculated in spots of approximately 10 000 colony-forming units. The media are incubated for 24 hours at 37° C., and then the colonies formed are examined visually.

[2] = system: Bacillus subtilis NCTC 9 372; details: 40 mg substrate in 400 ml Columbia medium; 24 hours at 37° C.; visual reading
Description: as §1

[3] = system: Candida albicans ATCC 90 028; details: 40 mg substrate in 400 ml Columbia medium; 24 hours at 37° C.; visual reading
Description: as §1

[4] = system: Staphylococcus aureus NCTC 6 571; details: 40 mg substrate in 400 ml Columbia medium; 24 hours at 37° C.; visual reading
Description: as §1

[5] = system: Serratia marcescens NCTC 10 211; details: 40 mg substrate in 400 ml Columbia medium, 24 hours at 37° C., visual reading
Description: as §1

[6] = system: Staphylococcus aureus NCTC 11 939; details: 40 mg substrate in 400 ml Columbia medium; 24 hours at 37° C.; visual reading
Description: as §1

[7] = system: Enterobacter cloacae NCTC 11 936; details: 40 mg substrate in 400 ml Columbia medium, 24 hours at 37° C., visual reading
Description: as §1

[8] = system: Pseudomonas aeruginosa NCTC 10 662; details: 40 mg substrate in 400 ml Columbia medium; 24 hours at 37° C.; visual reading
Description: as §1

[9] = system: Streptococcus pyogenes NCTC 8 306; details: 40 mg substrate in 400 ml Columbia medium; 24 hours at 37° C.; visual reading
Description: as §1

[10] = system: Staphylococcus epidermidis NCTC 11 047; details: 40 mg substrate in 400 ml Columbia medium; 24 hours at 37° C.; visual reading
Description: as §1

[11] = system: Listeria monocytogenes NCTC 11 994; details: 40 mg substrate in 400 ml Columbia medium; 24 hours at 37° C.; visual reading
Description: as §1

[12] = system: Salmonella typhimurium NCTC 74; details: 40 mg substrate in 400 ml Columbia medium; 24 hours at 37° C.; visual reading
Description: as §1

[13] = system: Escherichia coli NCTC 10 418; details: 40 mg substrate in 400 ml Columbia medium, 24 hours at 37° C., visual reading
Description: as §1

[14] = system: Providencia rettgeri NCTC 7 475; details: 40 mg substrate in 400 ml Columbia medium; 24 hours at 37° C.; visual reading
Description: as §1

[15] = system: Enterococcus faecium NCTC 7 171; details: 40 mg substrate in 400 ml Columbia medium; 24 hours at 37° C.; visual reading
Description: as §1

[16] = system: Candida glabrata NCPF 3 943; details: 40 mg substrate in 400 ml Columbia medium; 24 hours at 37° C.; visual reading
Description: as §1

[17] = system: Yersinia enterocolitica NCTC 11 176; details: 40 mg substrate in 400 ml Columbia medium; 24 hours at 37° C.; visual reading
Description: as §1

“Glycyl-2-(4′-aminostyryl)-N-methyl-benzothiazolinium iodide [Gly-ASBM^+]” was tested, and the Growth [1] was 1, the Color ([1]; colony color) was “Pale” and the Growth [2] was 2. The Growth [3] was 1, the Growth [4] was 2 and the Growth [5] was 2. The Color ([5]; colony color) was “Orange”, the Growth [6] was 1 and the Growth [7] was 2. The Color ([7]; colony color) was “Pale”, the Growth [8] was 2 and the Growth [9] was 1. For the same substance, the Growth [10] was 1, the Growth [11] was 1 and the Growth [12] was 2. For the same substance, the Growth [13] was 2, the Color ([13]; colony color) was “Pale” and the Growth [14] was 2. For the same substance, the Growth [15] was 1, the Growth [16] was 0.5 and the Growth [17] was 2.

Reference: patent US8535902B2, “Peptidase substrates” (bioMërieux, S.A., priority 2009, dated 2013)
